Data published in the NIST ThermoML archive (doi:10.1021/acs.jced.5b00654).
Values joined by “and” are separate entries in the source; they are usually repeats but may differ in a detail not shown here. Equal entries are not always repeated.

Settings: Fluid (supercritical or subcritical phases); for mass density: Buoyancy - hydrostatic balance with magnetic suspension - one sinker; for viscosity: Vibrating wire viscometry

CCCC [butane]
Settings	mass density	viscosity
298.11 K, 162.81 kPa	4.0157 kg/m3	0.007353 mPa·s
298.11 K, 162.82 kPa	4.016 kg/m3	0.007354 mPa·s
298.12 K, 142.16 kPa	3.4823 kg/m3	0.007359 mPa·s
298.12 K, 221.35 kPa	5.5716 kg/m3	0.007333 mPa·s
298.12 K, 221.39 kPa	5.5728 kg/m3	0.007334 mPa·s
298.13 K, 123.43 kPa	3.0049 kg/m3	0.007365 mPa·s
298.13 K, 123.44 kPa	3.0052 kg/m3	0.007363 mPa·s
298.13 K, 142.17 kPa	3.4826 kg/m3	0.007359 mPa·s
298.14 K, 61.79 kPa	1.4756 kg/m3	0.007376 mPa·s
298.14 K, 61.8 kPa	1.4758 kg/m3	0.007378 mPa·s
298.14 K, 82.37 kPa	1.9794 kg/m3	0.007375 mPa·s
298.14 K, 82.38 kPa	1.9797 kg/m3	0.007372 mPa·s
298.14 K, 102.9 kPa	2.4887 kg/m3	0.007369 mPa·s
298.14 K, 102.91 kPa	2.4889 kg/m3	0.00737 mPa·s
298.14 K, 175.29 kPa	4.3414 kg/m3 and 4.3415 kg/m3	0.007347 mPa·s and 0.007346 mPa·s
298.14 K, 196.75 kPa	4.9091 kg/m3	0.007342 mPa·s
298.14 K, 196.77 kPa	4.9096 kg/m3	0.007341 mPa·s
298.15 K, 57.18 kPa	1.3635 kg/m3 and 1.3636 kg/m3	0.007377 mPa·s and 0.007378 mPa·s
322.98 K, 450.39 kPa	11.024 kg/m3	0.007953 mPa·s
323 K, 450.69 kPa	11.032 kg/m3	0.007951 mPa·s
323.01 K, 450.89 kPa	11.037 kg/m3	0.007953 mPa·s
323.06 K, 392.1 kPa	9.426 kg/m3	0.007958 mPa·s
323.08 K, 392.5 kPa	9.4391 kg/m3	0.007954 mPa·s
323.09 K, 392.9 kPa	9.4492 kg/m3	0.00796 mPa·s
323.11 K, 380.74 kPa	9.1236 kg/m3	0.007958 mPa·s
323.11 K, 380.78 kPa	9.1236 kg/m3	0.007958 mPa·s
323.12 K, 330.12 kPa	7.8092 kg/m3	0.007967 mPa·s
323.12 K, 330.36 kPa	7.8164 kg/m3	0.007967 mPa·s
323.12 K, 380.76 kPa	9.1272 kg/m3	0.007958 mPa·s
323.13 K, 261.18 kPa	6.0223 kg/m3	0.00797 mPa·s
323.13 K, 261.21 kPa	6.023 kg/m3	0.007973 mPa·s
323.13 K, 301.54 kPa	7.0807 kg/m3	0.00797 mPa·s
323.13 K, 303.39 kPa	7.1241 kg/m3	0.007967 mPa·s
323.13 K, 305.32 kPa	7.1762 kg/m3	0.00797 mPa·s
323.13 K, 330.63 kPa	7.8215 kg/m3	0.007965 mPa·s
323.14 K, 58.2 kPa	1.2744 kg/m3 and 1.2766 kg/m3	0.007994 mPa·s and 0.007988 mPa·s
323.14 K, 58.21 kPa	1.2766 kg/m3	0.00799 mPa·s
323.14 K, 66.38 kPa	1.4575 kg/m3 and 1.4567 kg/m3	0.007991 mPa·s and 0.007994 mPa·s
323.14 K, 66.39 kPa	1.4553 kg/m3	0.007994 mPa·s
323.14 K, 90.51 kPa	1.9979 kg/m3	0.007987 mPa·s
323.14 K, 90.52 kPa	1.9986 kg/m3	0.00799 mPa·s
323.14 K, 112.93 kPa	2.5057 kg/m3	0.00799 mPa·s
323.14 K, 112.94 kPa	2.5035 kg/m3	0.007991 mPa·s
323.14 K, 112.96 kPa	2.5057 kg/m3	0.00799 mPa·s
323.14 K, 132.43 kPa	2.9506 kg/m3	0.007991 mPa·s
323.14 K, 132.44 kPa	2.9492 kg/m3	0.007989 mPa·s
323.14 K, 132.46 kPa	2.9499 kg/m3	0.007989 mPa·s
323.14 K, 184.24 kPa	4.1645 kg/m3	0.007979 mPa·s
323.14 K, 215.63 kPa	4.9096 kg/m3	0.007976 mPa·s
323.14 K, 215.65 kPa	4.9111 kg/m3	0.007976 mPa·s
323.14 K, 215.87 kPa	4.9169 kg/m3	0.007974 mPa·s
323.14 K, 261.28 kPa	6.0252 kg/m3	0.007968 mPa·s
323.15 K, 150.03 kPa	3.3622 kg/m3	0.007982 mPa·s
323.15 K, 150.04 kPa	3.3622 kg/m3	0.007982 mPa·s
323.15 K, 184.35 kPa	4.1652 kg/m3	0.00798 mPa·s
323.15 K, 184.36 kPa	4.1667 kg/m3	0.007979 mPa·s
348.03 K, 813.85 kPa	19.576 kg/m3	0.008652 mPa·s
348.03 K, 813.99 kPa	19.581 kg/m3	0.008648 mPa·s
348.03 K, 814.13 kPa	19.586 kg/m3	0.008649 mPa·s
348.12 K, 677.52 kPa	15.682 kg/m3	0.008631 mPa·s
348.12 K, 677.82 kPa	15.691 kg/m3	0.008631 mPa·s
348.13 K, 760.25 kPa	17.999 kg/m3	0.00864 mPa·s
348.13 K, 760.34 kPa	18.002 kg/m3	0.008637 mPa·s
348.14 K, 93.82 kPa	1.9124 kg/m3	0.008599 mPa·s
348.14 K, 93.83 kPa	1.9131 kg/m3	0.008597 mPa·s
348.14 K, 293.19 kPa	6.2173 kg/m3	0.008602 mPa·s
348.14 K, 293.73 kPa	6.2296 kg/m3	0.008602 mPa·s
348.14 K, 618.24 kPa	14.097 kg/m3	0.008621 mPa·s
348.14 K, 618.34 kPa	14.099 kg/m3	0.008628 mPa·s
348.15 K, 63.28 kPa	1.2845 kg/m3	0.008588 mPa·s
348.15 K, 63.3 kPa	1.286 kg/m3	–
